From ChEMBL document CHEMBL5674860, “Optimized Dual-Glo Assay to identify co-culture-induced drug vulnerabilities in 3D CRC models” (2024)
“And” between values parts separate entries of the source, which are not always exact repeats. Equal values may be shown once.

Columns and labels:
Assay type in all cases: functional, Homo sapiens
Parameters in all cases: dose or concentration left out as unconfirmed
Colon cancer organoid [1] = assay: Optimized Dual-Glo assay to identify co-culture induced drug vulnerabilities using donated chemical probes and chemogenomics kinase set in O06 CRC organoid and F06 CAF mono and co-culture. […] Cell viability is reported both mono and co-culture models.
Colon cancer organoid [2] = assay: Optimized Dual-Glo assay to identify co-culture induced drug vulnerabilities using donated chemical probes and chemogenomics kinase set in O20 CRC organoid and F20 CAF mono and co-culture. […] Cell viability is reported both mono and co-culture models.
Colon cancer organoid [3] = assay: Optimized Dual-Glo assay to identify co-culture induced drug vulnerabilities using donated chemical probes and chemogenomics kinase set in O14 CRC organoid and F14 CAF mono and co-culture. […] Cell viability is reported both mono and co-culture models.
[4] = Culture type Co-Culture, Transduced with Lucferase2-P2A-EGFP lentivirus
[5] = Culture type Co-Culture, Transduced with Renilla-dsRed lentivirus
[6] = Culture type Mono-Culture, Transduced with Lucferase2-P2A-EGFP lentivirus
[7] = Culture type Mono-Culture, Transduced with Renilla-dsRed lentivirus

SMILES | Cell Viability (Colon cancer organoid [1]; [4]) | Cell Viability (Colon cancer organoid [1]; [5]) | Cell Viability (Colon cancer organoid [1]; [6]) | Cell Viability (Colon cancer organoid [1]; [7]) | Cell Viability (Colon cancer organoid [2]; [4]) | Cell Viability (Colon cancer organoid [2]; [5]) | Cell Viability (Colon cancer organoid [2]; [6]) | Cell Viability (Colon cancer organoid [2]; [7]) | Cell Viability (Colon cancer organoid [3]; [4]) | Cell Viability (Colon cancer organoid [3]; [5]) | Cell Viability (Colon cancer organoid [3]; [6]) | Cell Viability (Colon cancer organoid [3]; [7])
O=C(c1ccc(C(=O)N2CCC(N3CCCC3)CC2)c(Nc2ccccc2)c1)N1CCC(N2CCCC2)CC1 | 108.091% | 96.0319% | 93.2966% | 98.6037% | 128.422% | 96.2949% | 123.486% | 97.1366% | 102.524% | 98.4049% | 104.115% | 98.5481%
CC(C)N(CCCNC(=O)Nc1ccc(C(C)(C)C)cc1)C[C@H]1O[C@@H](n2cc(Br)c3c(N)ncnc32)[C@H](O)[C@@H]1O | 62.4885% | 97.8527% | 76.7332% | 88.3272% | 59.1388% | 110.156% | 82.1777% | 84.781% | 69.7796% | 119.823% | 60.0766% | 78.3641%
COc1cc2c(cc1OCCCN1CCCC1)N=C(N)C21CCC1 | 84.9948% | 83.704% | 86.6673% | 61.562% | 75.7779% | 100.254% | 68.8586% | 68.8682% | 71.4641% | 82.9559% | 58.4791% | 57.8128%
CCOC(=O)CCNc1cc(N2CCc3ccccc3CC2)nc(-c2ccccn2)n1 | 103.039% | 116.98% | 128.06% | 112.043% | 100.893% | 127.032% | 66.9069% | 85.0003% | 81.7654% | 97.685% | 98.6348% | 109.679%
Cc1sc2c(c1C)C(c1ccc(Cl)cc1)=N[C@H](CC(=O)OC(C)(C)C)c1nnc(C)n1-2 | 107.283% | 109.974% | 69.4816% | 97.8447% | 98.7176% | 113.657% | 118.396% | 90.6965% | 111.301% | 136.501% | 108.464% | 107.072%
CCCc1cc(C)[nH]c(=O)c1CNC(=O)c1cc(-c2ccc(N3CCN(C(C)C)CC3)nc2)cc2c1cnn2C(C)C | 81.1391% | 118.175% | 116.95% | 88.1686% | 58.7881% | 157.842% | 61.2858% | 75.3301% | 66.7096% | 94.8471% | 83.1931% | 95.0739%
COc1ccc(CCc2nc3cc(-c4c(C)noc4C)ccc3n2C[C@H](C)N2CCOCC2)cc1Cl | 78.634% | 97.126% | 66.152% | 156.889% | 95.7417% | 133.846% | 83.4803% | 106.755% | 90.4848% | 144.282% | 124.855% | 138.359%
CCCOc1ccn2c(C(C)=O)cc(-c3ccccc3S(C)(=O)=O)c2c1 | 121.922% | 129.269% | 172.982% | 130.382% | 148.391% | 117.742% | 112.445% | 111.137% | 117.77% | 112.498% | 105.54% | 97.3869%
COc1cc(C#N)ccc1S(=O)(=O)Nc1ccc2c(c1)cc(C)c(=O)n2C | 94.9001% | 111.598% | 60.6858% | 105.903% | 96.6614% | 124.149% | 82.6901% | 95.7551% | 68.1001% | 108.689% | 83.6696% | 112.833%
O=C(/C=C/N1C[C@H]2C[C@@H]1CN2c1ccccn1)c1ccccc1O | 122.112% | 121.159% | 115.481% | 98.9347% | 98.7098% | 109.392% | 120.989% | 80.1119% | 76.8483% | 107.425% | 87.3467% | 104.591%
CCCS(=O)(=O)c1nc(NC2CC2)cc(-c2ccc3c(ccn3C3CC(C)(C)NC(C)(C)C3)c2)n1 | 80.022% and 93.4216% | 88.9327% and 142.491% | 57.3495% and 53.1993% | 66.0436% and 80.8259% | 90.8821% and 132.572% | 94.2313% and 119.463% | 112.848% and 138.911% | 68.5534% and 89.7285% | 89.4811% and 97.6343% | 131.118% and 106.572% | 78.7545% and 88.3769% | 100.347% and 100.989%
CCN(C(=O)CO)[C@H]1CN(/C(=N\C#N)Nc2cccc(OC(F)F)c2)N=C1c1ccc(Cl)c(Cl)c1 | 100.328% | 102.729% | 73.2581% | 127.729% | 98.0443% | 141.776% | 125.834% | 95.5224% | 96.421% | 116.48% | 90.9581% | 97.9735%
Cl.Cl.c1ccc([C@@H]2C[C@H]2NC2CCNCC2)cc1 | 78.4875% | 97.0217% | 85.9094% | 106.355% | 42.5951% | 97.3617% | 75.8314% | 98.3245% | 82.3558% | 127.479% | 88.7328% | 113.061%
CCCCNNC(=O)c1ccc(Br)cc1 | 113.204% | 110.004% | 101.234% | 117.719% | 131.228% | 114.511% | 127.902% | 88.6471% | 82.2147% | 109.67% | 123.977% | 94.4376%
COc1cc(Nc2ccnc3ccc(Br)cc23)cc(OC)c1OC | 12.1878% | 144.697% | 4.043% | 101.861% | 3.207% | 235.19% | 3.534% | 97.9085% | 114.11% | 94.8334% | 91.9496% | 94.0266%
Cc1nnc2c3ccccc3c(N[C@@H](C)[C@H](c3ccccc3)N(C)C)nn12 | 95.7989% | 115.114% | 100.296% | 129.772% | 82.0862% | 127.368% | 95.9209% | 100.184% | 89.8317% | 122.44% | 117.177% | 107.176%
C[C@H]1CC(=O)Nc2cc(C(=O)NCCC3CC3)ccc2N1C(=O)N1CC2CC2C1 (stereo partly specified) | 115.835% | 132.849% | 119.799% | 120.051% | 105.905% | 112.87% | 104.527% | 89.0255% | 72.2289% | 101.41% | 80.5063% | 95.2313%
COc1cc(C(=O)N2CC[C@@H](O)[C@@H](N)C2)cc2nc(-c3cc4ccccc4n3CC3CC3)n(C)c12.Cl | 124.227% | 121.721% | 98.6493% | 122.476% | 98.8385% | 114.018% | 83.2381% | 78.6997% | 132.512% | 122.105% | 79.0484% | 89.8768%
